Reference: ChEMBL document CHEMBL4152276, “Design, synthesis and biological evaluation of N-phenyl-(2,4-dihydroxypyrimidine-5-sulfonamido)benzoyl hydrazide derivatives as thymidylate synthase (TS) inhibitors and as potential antitumor drugs” (Eur J Med Chem, 2018)
The source made the active and inactive calls. The rule behind the calls is not given here.

Assays:
A549 [1] = assay: Antiproliferative activity against human A549 cells after 24 hrs by MTT assay; type: functional, cell-based; settings: A549, 24 h
OVCAR-3 = assay: Antiproliferative activity against human OVCAR3 cells after 24 hrs by MTT assay; type: functional, cell-based; settings: OVCAR-3, 24 h
SGC-7901 = assay: Antiproliferative activity against human SGC7901 cells after 24 hrs by MTT assay; type: functional, cell-based; settings: SGC-7901, 24 h
MDA-MB-231 = assay: Antiproliferative activity against human MDA-MB-231 cells after 24 hrs by MTT assay; type: functional, cell-based; settings: MDA-MB-231, 24 h
A549 [2] = assay: Antiproliferative activity against human A549 cells at 0.512 uM after 24 hrs by MTT assay relative to control; type: functional
A549 [3] = assay: Antiproliferative activity against human A549 cells at 1.28 uM after 24 hrs by MTT assay relative to control; type: functional
A549 [4] = assay: Antiproliferative activity against human A549 cells at 3.2 uM after 24 hrs by MTT assay relative to control; type: functional
A549 [5] = assay: Antiproliferative activity against human A549 cells at 8 uM after 24 hrs by MTT assay relative to control; type: functional
A549 [6] = assay: Antiproliferative activity against human A549 cells at 20 uM after 24 hrs by MTT assay relative to control; type: functional
[7] = Selectivity index, ratio of CC50 for HPAEpiC to IC50 for human A549 cells; type: toxicity; settings: HPAEpiC cells (CC50) versus A549 cells (IC50)
[8] = Selectivity index, ratio of CC50 for human IOSE80 cells to IC50 for human A549 cells; type: toxicity; settings: IOSE80 cells (CC50) versus A549 cells (IC50)
[9] = Selectivity index, ratio of CC50 for human GES1 cells to IC50 for human A549 cells; type: toxicity; settings: GES1 cells (CC50) versus A549 cells (IC50)
[10] = Selectivity index, ratio of CC50 for human HTB125 cells to IC50 for human A549 cells; type: toxicity; settings: HTB125 cells (CC50) versus A549 cells (IC50)
A549 [11] = assay: Induction of apoptosis in human A549 cells assessed as early apoptotic cells at 0.5 uM after 24 hrs by annexin V-FITC/propidium iodide staining-based flow cytometric method (reference value: 1.2%); type: functional
A549 [12] = assay: Induction of apoptosis in human A549 cells assessed as late apoptotic cells at 0.5 uM after 24 hrs by annexin V-FITC/propidium iodide staining-based flow cytometric method (reference value: 1.1%); type: functional
A549 [13] = assay: Induction of apoptosis in human A549 cells assessed as necrotic cells at 0.5 uM after 24 hrs by annexin V-FITC/propidium iodide staining-based flow cytometric method (reference value: 0%); type: functional
A549 [14] = assay: Induction of apoptosis in human A549 cells assessed as viable cells at 0.5 uM after 24 hrs by annexin V-FITC/propidium iodide staining-based flow cytometric method (reference value: 97.7%); type: functional; settings: A549, 24 h, read-out: Activity
A549 [15] = assay: Induction of apoptosis in human A549 cells assessed as early apoptotic cells at 1 uM after 24 hrs by annexin V-FITC/propidium iodide staining-based flow cytometric method (reference value: 1.2%); type: functional
A549 [16] = assay: Induction of apoptosis in human A549 cells assessed as late apoptotic cells at 1 uM after 24 hrs by annexin V-FITC/propidium iodide staining-based flow cytometric method (reference value: 1.1%); type: functional
A549 [17] = assay: Induction of apoptosis in human A549 cells assessed as necrotic cells at 1 uM after 24 hrs by annexin V-FITC/propidium iodide staining-based flow cytometric method (reference value: 0%); type: functional
A549 [18] = assay: Induction of apoptosis in human A549 cells assessed as viable cells at 1 uM after 24 hrs by annexin V-FITC/propidium iodide staining-based flow cytometric method (reference value: 97.7%); type: functional; settings: A549, 24 h, read-out: Activity
A549 [19] = assay: Induction of apoptosis in human A549 cells assessed as early apoptotic cells at 1.5 uM after 24 hrs by annexin V-FITC/propidium iodide staining-based flow cytometric method (reference value: 1.2%); type: functional
A549 [20] = assay: Induction of apoptosis in human A549 cells assessed as late apoptotic cells at 1.5 uM after 24 hrs by annexin V-FITC/propidium iodide staining-based flow cytometric method (reference value: 1.1%); type: functional
A549 [21] = assay: Induction of apoptosis in human A549 cells assessed as necrotic cells at 1.5 uM after 24 hrs by annexin V-FITC/propidium iodide staining-based flow cytometric method (reference value: 0%); type: functional
A549 [22] = assay: Induction of apoptosis in human A549 cells assessed as viable cells at 1.5 uM after 24 hrs by annexin V-FITC/propidium iodide staining-based flow cytometric method (reference value: 97.7%); type: functional; settings: A549, 24 h, read-out: Activity
A549 [23] = assay: Induction of apoptosis in human A549 cells assessed as early apoptotic cells at 3 uM after 24 hrs by annexin V-FITC/propidium iodide staining-based flow cytometric method (reference value: 1.2%); type: functional
A549 [24] = assay: Induction of apoptosis in human A549 cells assessed as late apoptotic cells at 3 uM after 24 hrs by annexin V-FITC/propidium iodide staining-based flow cytometric method (reference value: 1.1%); type: functional
A549 [25] = assay: Induction of apoptosis in human A549 cells assessed as necrotic cells at 3 uM after 24 hrs by annexin V-FITC/propidium iodide staining-based flow cytometric method (reference value: 0%); type: functional
A549 [26] = assay: Induction of apoptosis in human A549 cells assessed as viable cells at 3 uM after 24 hrs by annexin V-FITC/propidium iodide staining-based flow cytometric method (reference value: 97.7%); type: functional; settings: A549, 24 h, read-out: Activity
A549 [27] = assay: Induction of apoptosis in human A549 cells assessed as upregulation of bax protein expression at 0.5 to 3 uM after 24 hrs by Western blot method; type: functional, cell-based
A549 [28] = assay: Induction of apoptosis in human A549 cells assessed as increase in cleaved caspase-3 levels at 0.5 to 3 uM after 24 hrs by Western blot method; type: functional, cell-based
A549 [29] = assay: Induction of apoptosis in human A549 cells assessed as decrease in ratio of Bcl2/Bax at 0.5 uM after 24 hrs by Western blot method relative to control; type: functional
A549 [30] = assay: Induction of apoptosis in human A549 cells assessed as decrease in ratio of Bcl2/Bax at 1 uM after 24 hrs by Western blot method relative to control; type: functional
A549 [31] = assay: Induction of apoptosis in human A549 cells assessed as decrease in ratio of Bcl2/Bax at 1.5 uM after 24 hrs by Western blot method relative to control; type: functional
A549 [32] = assay: Induction of apoptosis in human A549 cells assessed as decrease in ratio of Bcl2/Bax at 3 uM after 24 hrs by Western blot method relative to control; type: functional

## O=C(NNC(=O)c1ccccc1NS(=O)(=O)c1cnc(O)nc1O)c1cccc(Cl)c1
A549 [1]
  IC50: 1.26 µM
OVCAR-3
  IC50: 2.08 µM
SGC-7901
  IC50: 1.82 µM
MDA-MB-231
  IC50: 4.42 µM
A549 [2]
  Activity: 35.83%
A549 [3]
  Activity: 51.21%
A549 [4]
  Activity: 55.39%
A549 [5]
  Activity: 66.28%
A549 [6]
  Activity: 82.54%
[7]
  selectivity ratio: 16.7
[8]
  selectivity ratio: 11.3
[9]
  selectivity ratio: 14.2
[10]
  selectivity ratio: 5.73
A549 [11]
  Activity: 6.9%
A549 [12]
  Activity: 1.6%
A549 [13]
  Activity: 0.1%
A549 [14]
  viability at 0.5 µM: 91.4%
A549 [15]
  Activity: 9.8%
A549 [16]
  Activity: 2.7%
A549 [17]
  Activity: 0.1%
A549 [18]
  viability at 1 µM: 87.4%
A549 [19]
  Activity: 19.6%
A549 [20]
  Activity: 2.5%
A549 [21]
  Activity: 0%
A549 [22]
  viability at 1.5 µM: 77.9%
A549 [23]
  Activity: 35.5%
A549 [24]
  Activity: 3.9%
A549 [25]
  Activity: 0.4%
A549 [26]
  viability at 3 µM: 60.2%
A549 [27]
  Activity: Active
A549 [28]
  Activity: Active
A549 [29]
  fold change (FC): 0.8
A549 [30]
  fold change (FC): 0.54
A549 [31]
  fold change (FC): 0.3
A549 [32]
  fold change (FC): 0.17

## Nc1nc2[nH]cc(CCc3ccc(C(=O)N[C@@H](CCC(=O)O)C(=O)O)cc3)c2c(=O)[nH]1 [PEMETREXED]
A549 [1]
  IC50: 3.31 µM
OVCAR-3
  IC50: 6.9 µM
SGC-7901
  IC50: 9.08 µM
MDA-MB-231
  IC50: 3.85 µM
A549 [2]
  Activity: 22.93%
A549 [3]
  Activity: 49.43%
A549 [4]
  Activity: 56.2%
A549 [5]
  Activity: 61.82%
A549 [6]
  Activity: 64.42%
[7]
  selectivity ratio: 7.51
[8]
  selectivity ratio: 3.59
[9]
  selectivity ratio: 3.22
[10]
  selectivity ratio: 6.02
